Here are results for 35 molecules from patent US12365655B2, “Compounds” (CTXT PTY LTD, priority 2018, dated 2025).

One assay has as its target TIP60-KAT5 (Homo sapiens, UniProt Q92993). Kind of assay: Acetyltransferase biochemical assay (AlphaScreen), KAT5. (Bead proximity is the source of the signal in Alpha formats.)
The next assay has as its target MOZ-KAT6A (Homo sapiens, UniProt Q92794, A567V). Kind of assay: Acetyltransferase biochemical assay (AlphaScreen), KAT6A.
In the next assay the target is HBO-KAT7 (Homo sapiens, UniProt O95251). Kind of assay: Acetyltransferase biochemical assay (AlphaScreen), KAT7.

Where a name gives a salt, the structure may show the parent alone. Some results are limits rather than exact numbers.

Chain of MOZ-KAT6A (Q92794 with tags, fused parts or gaps A567V): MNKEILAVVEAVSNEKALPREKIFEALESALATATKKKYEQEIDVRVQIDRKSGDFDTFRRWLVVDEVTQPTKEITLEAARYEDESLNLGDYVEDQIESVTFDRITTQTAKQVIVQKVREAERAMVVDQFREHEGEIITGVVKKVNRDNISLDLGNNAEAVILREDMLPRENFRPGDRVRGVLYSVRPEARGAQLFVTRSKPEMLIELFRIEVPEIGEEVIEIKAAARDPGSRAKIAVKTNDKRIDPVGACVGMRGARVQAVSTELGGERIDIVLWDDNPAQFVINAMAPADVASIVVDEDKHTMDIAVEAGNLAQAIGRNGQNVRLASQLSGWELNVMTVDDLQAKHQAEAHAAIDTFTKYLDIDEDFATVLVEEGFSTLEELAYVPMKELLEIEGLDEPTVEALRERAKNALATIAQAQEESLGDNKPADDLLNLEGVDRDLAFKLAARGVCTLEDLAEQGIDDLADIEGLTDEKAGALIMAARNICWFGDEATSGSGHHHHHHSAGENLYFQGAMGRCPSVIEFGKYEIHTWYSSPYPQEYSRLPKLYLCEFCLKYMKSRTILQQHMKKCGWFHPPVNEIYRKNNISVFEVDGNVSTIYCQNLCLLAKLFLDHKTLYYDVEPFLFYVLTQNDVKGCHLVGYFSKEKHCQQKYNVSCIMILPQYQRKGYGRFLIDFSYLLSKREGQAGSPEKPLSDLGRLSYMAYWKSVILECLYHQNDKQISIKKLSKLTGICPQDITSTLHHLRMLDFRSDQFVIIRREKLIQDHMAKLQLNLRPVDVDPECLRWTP
Chain of HBO-KAT7 (O95251 with tags, fused parts or gaps): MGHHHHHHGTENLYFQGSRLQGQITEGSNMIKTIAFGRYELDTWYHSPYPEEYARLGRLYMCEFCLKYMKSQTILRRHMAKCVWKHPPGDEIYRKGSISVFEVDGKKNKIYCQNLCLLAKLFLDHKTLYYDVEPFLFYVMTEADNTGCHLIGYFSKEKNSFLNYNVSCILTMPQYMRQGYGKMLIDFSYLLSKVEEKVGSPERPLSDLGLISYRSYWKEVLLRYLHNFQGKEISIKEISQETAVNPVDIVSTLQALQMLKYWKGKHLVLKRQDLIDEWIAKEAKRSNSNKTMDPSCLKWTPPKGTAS
Chain of TIP60-KAT5 (Q92993 with tags, fused parts or gaps isoform Q92993-2): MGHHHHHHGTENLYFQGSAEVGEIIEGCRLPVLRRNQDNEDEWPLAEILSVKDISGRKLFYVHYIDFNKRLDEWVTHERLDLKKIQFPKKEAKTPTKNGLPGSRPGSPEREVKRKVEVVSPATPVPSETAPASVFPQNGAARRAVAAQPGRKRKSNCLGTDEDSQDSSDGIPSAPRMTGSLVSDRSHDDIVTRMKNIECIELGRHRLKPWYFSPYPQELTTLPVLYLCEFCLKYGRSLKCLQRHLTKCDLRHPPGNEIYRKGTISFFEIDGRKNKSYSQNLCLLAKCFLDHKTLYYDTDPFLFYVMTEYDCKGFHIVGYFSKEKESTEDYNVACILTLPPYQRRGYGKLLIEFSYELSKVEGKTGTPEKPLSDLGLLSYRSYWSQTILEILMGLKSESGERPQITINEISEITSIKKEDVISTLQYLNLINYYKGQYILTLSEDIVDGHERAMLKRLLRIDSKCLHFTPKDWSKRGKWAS

As usually defined, the IC50 is the concentration that gives 50% inhibition. Consider `COc1cc(C#N)cc(-c2cc(OC)c3c(NS(=O)(=O)c4c(OC)cccc4OC)noc3c2)c1` [Example 251], for which the IC50 was found to be 47 µM against TIP60-KAT5, 1.16 µM at MOZ-KAT6A and 0.473 µM at HBO-KAT7.
Consider `COc1ccc(Oc2ccccc2)cc1S(=O)(=O)Nc1noc2cccc(OC)c12` [Example 99, 2-Methoxy-N-(4-methoxybenzo[d]isoxazol-3-yl)-5-phenoxybenzenesulfonamide], for which the half-inhibitory concentration (IC50) against TIP60-KAT5 worked out at 9.7 µM; at MOZ-KAT6A, 2.1 µM; against HBO-KAT7, 5.74 µM.
For `CCc1ccc(OC)c(S(=O)(=O)Nc2noc3c(OCC4CC4)cccc23)c1` [Example 133] the same measures were 45.7 µM, 4.45 µM and 5.34 µM.
For `CCc1ccc(OC)c(S(=O)(=O)Nc2noc3cccc(C4CCCCC4)c23)c1` [Example 201], the 50% inhibitory concentration (IC50) at TIP60-KAT5 stood at 21.8 µM; against MOZ-KAT6A it was 1.48 µM; against HBO-KAT7, 0.773 µM.
For `CCc1ccc(OC)c(S(=O)(=O)Nc2noc3c(F)cccc23)c1` [Example 152] the same measures were 38.9 µM, 6.28 µM and 9.87 µM.
The like results for `CCc1ccc(OC)c(S(=O)(=O)Nc2noc3cc(C)ccc23)c1` [Example 193, 5-Ethyl-2-methoxy-N-(6-methylbenzo[d]isoxazol-3-yl)benzenesulfonamide] were, in that order, 53.1 µM, 1.95 µM and 15.5 µM.
For `CCc1ccc(OC)c(S(=O)(=O)Nc2noc3ccccc23)c1` [Example 63, N-(benzo[d]isoxazol-3-yl)-5-ethyl-2-methoxy benzene-sulfonamide], the values for the IC50 against TIP60-KAT5, on MOZ-KAT6A and on HBO-KAT7 were above 125 µM, 2.56 µM and 60.1 µM, respectively.
`COc1cc(-c2ccccc2)ccc1S(=O)(=O)Nc1noc2ccccc12` [Example 183, N-(Benzo[d]isoxazol-3-yl)-3-methoxy-[1,1-biphenyl]-4-sulfonamide]: the IC50 on TIP60-KAT5 worked out at 33.2 µM; at MOZ-KAT6A it was 5.6 µM; on HBO-KAT7, 4.48 µM.
For `O=S(=O)(Nc1noc2cccc(Cl)c12)c1cccc2c1OCCO2` [Example 39, N-(4-chlorobenzo [d]isoxazol-3-yl)-2,3-dihydrobenzo[b][1,4]dioxine-5-sulfonamide] the same measures were above 125 µM, 38.2 µM and 10.1 µM.
With `O=S(=O)(Nc1noc2cccc(Cl)c12)c1ccc(Br)cc1OC(F)(F)F` [Example 32, 4-bromo-N-(4-chlorobenzo[d]isoxazol-3-yl)-2-(trifluoromethoxy) benzenesulfonamide], the values for the IC50 against TIP60-KAT5, at MOZ-KAT6A and against HBO-KAT7 were 56 µM, 31.1 µM and 14.9 µM, respectively.
Regarding `CCc1ccc(OC)c(S(=O)(=O)Nc2noc3ccc(-c4cnn(C)c4)cc23)c1` [Example 237, 5-Ethyl-2-methoxy-N-(5-(1-methyl-1H-pyrazol-4-yl)benzo[d]isoxazol-3-yl)benzenesulfonamide], the IC50 on TIP60-KAT5 was above 125 µM; against MOZ-KAT6A, 4.95 µM; on HBO-KAT7, 18 µM.
For `COc1cccc2onc(NS(=O)(=O)c3ccccc3)c12` [Example 90, N-(4-Methoxybenzo[d]isoxazol-3-yl)benzenesulfonamide] the same measures were 90.7 µM, 4.78 µM and 18.9 µM.
Regarding `CCc1ccc(OC)c(S(=O)(=O)Nc2noc3c(C4CC4)cccc23)c1` [Example 189], the IC50 against TIP60-KAT5 is 32 µM; against MOZ-KAT6A, 4.35 µM; against HBO-KAT7, 8.02 µM.
Turning to `CCc1ccc(OC)c(S(=O)(=O)Nc2noc3ccc(Br)c(OC)c23)c1` [Example 108, N-(5-bromo-4-methoxybenzo[d]isoxazol-3-yl)-5-ethyl-2-methoxy benzenesulfonamide], the results for the IC50 against TIP60-KAT5, at MOZ-KAT6A and at HBO-KAT7 were 41.9 µM, 3.09 µM and 2.04 µM, respectively.
In the case of `COc1ccc(-n2cccn2)cc1S(=O)(=O)Nc1noc2ccccc12` [Example 54, N-(benzo[d]isoxazol-3-yl)-2-methoxy-5-(1H-pyrazol-1-yl)benzene sulfonamide], the IC50 was above 125 µM against TIP60-KAT5, 63 µM at MOZ-KAT6A and above 125 µM against HBO-KAT7.
Consider `COc1cccc(OCc2ccccc2)c1S(=O)(=O)Nc1noc2cccc(OC)c12` [Example 222, 2-(Benzyloxy)-6-methoxy-N-(4-methoxybenzo[d]isoxazol-3-yl)benzenesulfonamide], for which the IC50 came to 26.8 µM on TIP60-KAT5, 0.655 µM at MOZ-KAT6A and 1.42 µM at HBO-KAT7.
Consider `O=S(=O)(Nc1noc2ccccc12)c1ccc(C2CCCCC2)cc1` [Example 71, N-(benzo[d]isoxazol-3-yl)-4-cyclohexyl benzene-sulfonamide], for which the IC50 worked out at 28.4 µM at TIP60-KAT5, 11.6 µM at MOZ-KAT6A and 21.6 µM against HBO-KAT7.
As to `CC(C)Oc1ccc(S(=O)(=O)Nc2noc3cccc(Cl)c23)cc1` [Example 24, N-(4-chlorobenzo [d]isoxazol-3-yl)-4-isopropoxybenzene sulfonamide], the IC50 at TIP60-KAT5 is above 125 µM; against MOZ-KAT6A, above 125 µM; on HBO-KAT7, 33.9 µM.
As for `O=S(=O)(Nc1noc2cccc(Cl)c12)c1c(F)cccc1F` [Example 29, N-(4-chlorobenzo [d]isoxazol-3-yl)-2,6-difluorobenzene sulfonamide], the IC50 on TIP60-KAT5 was above 125 µM; against MOZ-KAT6A it was above 125 µM; against HBO-KAT7, 94.1 µM.
For `CCc1ccc(OC)c(S(=O)(=O)Nc2noc3c(Br)cccc23)c1` [Example 137], the IC50 against TIP60-KAT5 was 14.2 µM; against MOZ-KAT6A, 8.58 µM; against HBO-KAT7, 6.56 µM.
The like results for `COc1cc(CN)cc(OC)c1S(=O)(=O)Nc1noc2cccc(OC)c12` [Example 210, 4-(Aminomethyl)-2,6-dimethoxy-N-(4-methoxybenzo[d]isoxazol-3-yl)benzenesulfonamide hydrochloride] were, in that order, above 125 µM, 8.53 µM and 6.54 µM.
Regarding `Cc1nnc(-c2cccc(S(=O)(=O)Nc3noc4ccccc34)c2)o1` [Example 67, N-(benzo[d]isoxazol-3-yl)-3-(5-methyl-1,3,4-oxadiazol-2-yl)benzene sulfonamide], the IC50 was 115 µM at TIP60-KAT5, 22.7 µM at MOZ-KAT6A and above 125 µM against HBO-KAT7.
Consider `COc1cc(OC)c(S(=O)(=O)Nc2noc3cccc(OC)c23)c(OC)c1` [Example 85, 2,4,6-trimethoxy-N-(4-methoxybenzo[d]isoxazol-3-yl)benzene sulfonamide], for which the IC50 was determined as 28.5 µM on TIP60-KAT5, 3.87 µM at MOZ-KAT6A and 1.77 µM on HBO-KAT7.
For `COc1ccc(S(=O)(=O)Nc2noc3cc(C#N)c(C)cc23)c(OC)c1` [Example 169], the IC50 worked out at 63.2 µM on TIP60-KAT5, 24.8 µM at MOZ-KAT6A and 8.65 µM on HBO-KAT7.
Consider `COc1cccc(OC)c1S(=O)(=O)Nc1noc2cc(-c3cccc(C#N)c3)cc(OC)c12` [Example 243], for which the IC50 against TIP60-KAT5 came out at 18.1 µM; at MOZ-KAT6A it was 0.654 µM; on HBO-KAT7, 0.72 µM.
Regarding `CCc1ccc(OC)c(S(=O)(=O)Nc2noc3c(CO)cccc23)c1` [Example 186], the 50% inhibitory concentration (IC50) at TIP60-KAT5 is 84.7 µM; at MOZ-KAT6A it was 25.2 µM; against HBO-KAT7, 47.1 µM.
For the molecule `COc1ccc(C(C)C)cc1S(=O)(=O)Nc1noc2ccccc12` [Example 49, N-(benzo[d]isoxazol-3-yl)-5-isopropyl-2-methoxy benzene sulfonamide], the concentration for half-maximal inhibition (IC50) was 74.6 µM against TIP60-KAT5, 8.13 µM against MOZ-KAT6A and 77.8 µM on HBO-KAT7.
Consider `CCc1ccc(OC)c(S(=O)(=O)Nc2noc3cc(-c4ccccn4)ccc23)c1` [Example 140, 5-Ethyl-2-methoxy-N-(6-(pyridin-2-yl)benzo[d]isoxazol-3-yl)benzenesulfonamide], for which the IC50 against TIP60-KAT5 is 47.8 µM; against MOZ-KAT6A, 2.26 µM; against HBO-KAT7, 9.9 µM.
Take `COc1cc(C)c(C(C)C)cc1S(=O)(=O)Nc1noc2cccc(Cl)c12` [Example 37, N-(4-chlorobenzo [d]isoxazol-3-yl)-5-isopropyl-2-methoxy-4-methylbenzenesulfonamide]: the IC50 against TIP60-KAT5 was above 125 µM; against MOZ-KAT6A, 24.8 µM; against HBO-KAT7, 114 µM.
Turning to `COC(=O)c1ccc(OC)c(S(=O)(=O)Nc2noc3ccccc23)c1` [Example 50, methyl 3-(N-(benzo[d]isoxazol-3-yl)sulfamoyl)-4-methoxy benzoate], the IC50 against TIP60-KAT5 is above 125 µM; at MOZ-KAT6A, 123 µM; on HBO-KAT7 it was above 125 µM.
On to `COc1ccc(-c2cc(OC)c3c(NS(=O)(=O)c4c(OC)cccc4OC)noc3c2)cn1` [Example 247, 2,6-Dimethoxy-N-(4-methoxy-6-(6-methoxypyridin-3-yl)benzo[d]isoxazol-3-yl)benzenesulfonamide], for which the results for the half-maximal inhibitory concentration (IC50) on TIP60-KAT5, on MOZ-KAT6A and at HBO-KAT7 were 96.6 µM, 3.48 µM and 5.9 µM, respectively.
On to `CCc1ccc(OC)c(S(=O)(=O)Nc2noc3cc(-c4ccccc4)ccc23)c1` [Example 179, 5-Ethyl-2-methoxy-N-(6-phenylbenzo[d]isoxazol-3-yl)benzenesulfonamide], for which the 50% inhibitory concentration (IC50) against TIP60-KAT5 was 32.1 µM; at MOZ-KAT6A it was 2.86 µM; on HBO-KAT7, 13.5 µM.
Regarding `CCc1ccc(OC)c(S(=O)(=O)Nc2noc3cc(OCC4CC4)ccc23)c1` [Example 134], the concentration for half-maximal inhibition (IC50) is 51.5 µM against TIP60-KAT5, 6.45 µM against MOZ-KAT6A and 27.6 µM on HBO-KAT7.
For `CCOc1ccc(CC)cc1S(=O)(=O)Nc1noc2ccccc12` [Example 57, N-(benzo[d]isoxazol-3-yl)-2-ethoxy-5-ethylbenzene sulfonamide], the IC50 was above 125 µM against TIP60-KAT5, 56.2 µM at MOZ-KAT6A and above 125 µM on HBO-KAT7.
For `CCc1ccc(OC)c(S(=O)(=O)Nc2noc3ccc(CC)c(Cl)c23)c1` [Example 206], the IC50 against TIP60-KAT5 was 6.36 µM; against MOZ-KAT6A it was 0.302 µM; at HBO-KAT7, 0.626 µM.
